Measured values taken from ChEMBL document CHEMBL1131780 (Bioorg Med Chem Lett, 1999).
Where a chain is given by its changes, count along the chain named.

Columns and labels:
[1] = molecular target: T1, Muscarinic acetylcholine receptor M1 (Homo sapiens) (UniProt P11229); test: Efficacy expressed as PI (percentage of carbachol) against human M1 receptor expressed in CHO cells; format: functional, cell-based
T1 sequence (whole entry): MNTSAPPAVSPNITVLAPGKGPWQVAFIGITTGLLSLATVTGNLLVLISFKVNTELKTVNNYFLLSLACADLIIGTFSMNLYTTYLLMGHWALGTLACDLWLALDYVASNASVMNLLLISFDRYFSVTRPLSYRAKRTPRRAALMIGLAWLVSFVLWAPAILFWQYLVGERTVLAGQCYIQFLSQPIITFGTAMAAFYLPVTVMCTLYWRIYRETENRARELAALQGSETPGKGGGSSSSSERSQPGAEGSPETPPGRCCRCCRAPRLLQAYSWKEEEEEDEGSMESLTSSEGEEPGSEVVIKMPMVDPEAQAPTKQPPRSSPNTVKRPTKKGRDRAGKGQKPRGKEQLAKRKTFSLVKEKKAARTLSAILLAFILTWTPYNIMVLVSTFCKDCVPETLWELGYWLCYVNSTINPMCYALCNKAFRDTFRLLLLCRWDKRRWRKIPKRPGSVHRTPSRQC

[2] = molecular target: T2, Muscarinic acetylcholine receptor M1 (Homo sapiens, UniProt P11229); test: Affinity towards human M1 receptor expressed in CHO cells using [3H]QNB as radioligand; format: cell-based
T2 sequence (P11229 whole entry): T1 sequence (whole entry)

Rattus norvegicus [3] = organism: Rattus norvegicus; test: Compound was evaluated for minimum effective dose in the rat radial arm maze model; format: functional; conditions: read-out: MED
[4] = molecular target: T3, Muscarinic acetylcholine receptor M2 (Homo sapiens) (UniProt P08172); test: Effective dose against affinity towards human muscarinic M2 receptor; format: functional
T3 sequence (whole entry): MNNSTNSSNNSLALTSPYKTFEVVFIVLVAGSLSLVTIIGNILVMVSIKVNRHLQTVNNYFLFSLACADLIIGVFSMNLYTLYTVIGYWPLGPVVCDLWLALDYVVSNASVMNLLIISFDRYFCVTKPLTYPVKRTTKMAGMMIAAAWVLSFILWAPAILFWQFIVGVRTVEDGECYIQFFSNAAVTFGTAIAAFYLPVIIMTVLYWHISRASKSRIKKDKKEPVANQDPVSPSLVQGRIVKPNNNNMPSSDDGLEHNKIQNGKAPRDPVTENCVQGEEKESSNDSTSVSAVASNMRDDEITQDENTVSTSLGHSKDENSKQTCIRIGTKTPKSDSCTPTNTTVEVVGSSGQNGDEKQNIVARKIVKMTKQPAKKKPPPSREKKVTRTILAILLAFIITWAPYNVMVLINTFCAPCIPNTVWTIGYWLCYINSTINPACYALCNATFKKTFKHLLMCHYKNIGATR

[5] = molecular target: T4, Muscarinic acetylcholine receptor M2 (Homo sapiens, UniProt P08172); test: Binding affinity towards human muscarinic M2 receptor
T4 sequence (P08172 whole entry): T3 sequence (whole entry)

[6] = molecular target: T1, Muscarinic acetylcholine receptor M1 (Homo sapiens)
Description: Effective dose against affinity towards human muscarinic M1 receptor

[7] = Compound was evaluated for half-life in human liver microsomes; format: ADME, Microsome
Monkey [8] = test: In vivo cognitive assessment after oral administration of WAY-132983 in primates (Rhesus and cynomolgus monkeys) using pre-trained aged subjects (long delay); format: functional; conditions: Cercopithecidae, read-out: MED
Monkey [9] = test: In vivo cognitive assessment after oral administration of WAY-132983 in primates (Rhesus and cynomolgus monkeys) using pre-trained aged subjects (short delay); format: functional; conditions: Cercopithecidae, read-out: MED
[10] = molecular target: T5, Muscarinic acetylcholine receptor M3 (Homo sapiens, UniProt P20309); test: In vitro functional agonism against M3 muscarinic receptor (PI)
T5 sequence (P20309 whole entry): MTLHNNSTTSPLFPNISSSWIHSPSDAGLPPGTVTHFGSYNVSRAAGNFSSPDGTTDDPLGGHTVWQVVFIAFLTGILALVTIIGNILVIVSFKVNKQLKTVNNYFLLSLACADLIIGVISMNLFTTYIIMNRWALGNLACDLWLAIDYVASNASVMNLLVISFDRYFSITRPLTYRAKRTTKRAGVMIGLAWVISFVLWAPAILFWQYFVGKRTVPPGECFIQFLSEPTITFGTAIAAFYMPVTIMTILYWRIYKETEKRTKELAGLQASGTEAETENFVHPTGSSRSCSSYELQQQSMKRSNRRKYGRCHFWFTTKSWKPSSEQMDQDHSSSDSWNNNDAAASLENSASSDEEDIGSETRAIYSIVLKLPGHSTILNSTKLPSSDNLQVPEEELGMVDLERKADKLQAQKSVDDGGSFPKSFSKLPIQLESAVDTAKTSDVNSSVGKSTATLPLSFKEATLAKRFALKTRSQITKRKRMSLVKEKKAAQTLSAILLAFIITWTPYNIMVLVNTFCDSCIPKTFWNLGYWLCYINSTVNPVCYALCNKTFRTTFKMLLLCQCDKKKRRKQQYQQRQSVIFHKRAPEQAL

[11] = molecular target: T5, Muscarinic acetylcholine receptor M3; test: Binding affinity towards human muscarinic M3 receptor
[12] = molecular target: T2, Muscarinic acetylcholine receptor M1; test: In vitro functional agonism against M1 muscarinic receptor (PI)
[13] = molecular target: T6, Muscarinic acetylcholine receptor M1 (Rattus norvegicus, UniProt P08482); test: Binding affinity against M1 receptor was determined by displacing [3H]OXO-M in rat cortical homogenate
T6 sequence (P08482 whole entry): T1 sequence (whole entry) with A5V, T254S, P309S, R320K, A337G, I413V

[14] = molecular target: T4, Muscarinic acetylcholine receptor M2; test: In vitro functional agonism against M2 muscarinic receptor (cAMP)
Rattus norvegicus [15] = test: Compound was evaluated in vivo for cognitive impairment reduction in AF64-impaired RAM, rat administered subcutaneously; format: functional; conditions: sc, read-out: MED
[16] = Compound was evaluated in vivo for lethal dose in rats; format: ADME, organism-based; conditions: rat

Row | SMILES | PI [1] [%] | Ki [2] [nM] | also measured
1 | c1cnc(O[C@@H]2CN3CCC2C3)cn1 (stereo in doubt; 2) [listing 1 of 2 here] | 83 | – | –
2 | c1cnc(O[C@@H]2CN3CCC2C3)cn1 (stereo in doubt; 2) [listing 2 of 2 here] | – | 2500 | –
3 | CCCCCCOc1nccnc1O[C@H]1CN2CCC1C2 (stereo not given in full) | 56 | 690 | –
4 | CCCCCCOc1nccnc1SC1CN2CCC1C2 (stereo not given) | 42 | – | –
5 | CCCCCCSc1nccnc1OC1CN2CCC1C2 (stereo in doubt; 8) | 104 | – | –
6 | CCCCCCSc1nccnc1SC1CN2CCC1C2 (stereo not given) | 62 | – | –
7 | CCCCCCOc1nccnc1O[C@@H]1CN2CCC1C2 (stereo in doubt; 6) | – | 14 | –
8 | CCCCCCOc1nccnc1O[C@@H]1CN2CCC1C2 (stereo in doubt; 12) [listing 1 of 2 here] | 9 | – | –
9 | CCCCCCOc1nsnc1C1=CCCN(C)C1 | 79 | – | –
10 | CNC(=O)O[C@@H]1CN2CCC1C2 (stereo not given in full) | 100 | 26000 | minimal effective dose (Rattus norvegicus [3]): 1 mg/kg
11 | CCCCCCSc1nccnc1OC1CN2CCC1C2 (stereo in doubt; 4) [listing 1 of 2 here] | – | 7 | –
12 | CCCCCCSc1cncc(OC2CN3CCC2C3)n1 (stereo not given) | 2 | 22 | –
13 | CCCCCCOc1nccnc1OC1CN2CCC1C2 (stereo not given) | 88 | – | ED50 [4]: 600 nM; Ki [5]: 20 nM; ED50 [6]: 1.4 nM
14 | CCCCCCSc1nccnc1O[C@@H]1CN2CCC1C2 (stereo not given in full) | 107 | 75 | –
15 | CCCCCCSc1nccnc1O[C@H]1CN2CCC1C2 (stereo not given in full) | – | 124 | –
16 | c1cnc(O[C@@H]2CN3CCC2C3)cn1 (stereo in doubt; 1) [listing 1 of 2 here] | 96 | – | –
17 | CCCCCCSc1nccnc1O[C@H]1CN2CCC1C2.Cl (stereo not given in full) | – | 2 | half-life [7]: 1.88 h; minimal effective dose (Monkey [8]): 0.01 mg/kg; minimal effective dose (Monkey [9]): 0.03 mg/kg; EC50 [10]: 3.7 nM; Ki [11]: 5.9 nM; EC50 [12]: 1.1 nM; Ki [13]: 0.4 nM; EC50 [14]: 8 nM; Ki [5]: 3.4 nM; minimal effective dose (Rattus norvegicus [15]): 0.03 mg/kg
18 | CCCCCCSc1nccnc1OC1CN2CCC1C2 (stereo in doubt; 4) [listing 2 of 2 here] | 85 | – | –
19 | CCCCCCOc1nccnc1O[C@@H]1CN2CCC1C2 (stereo in doubt; 12) [listing 2 of 2 here] | – | 465 | –
20 | c1cnc(O[C@@H]2CN3CCC2C3)cn1 (stereo in doubt; 1) [listing 2 of 2 here] | – | 5600 | Ki [5]: 40 nM; LD50 [16]: 30 mg/kg
